Source: US4336263A, “1,4-Cycloalkano-oxazepines, salts thereof and analgesic uses thereof” (priority 1978, dated 1982)
Like-named read-outs stand apart in the source and are kept apart here.

Legend:
[1] = acute lethal dose (LD 50) for intraperitoneal administration; format: in vivo; conditions: for Relative toxicity: Nefopam = 1.00
Text: The comparatively low toxicity of the novel compounds can also be deduced from the acute lethal dose (LD 50) for intraperitoneal administration (Table 2). The LD 50 values are from about 90% to 240% higher than those of Nefopam.

[2] = tested on: female mice (NMRI strain); experiment: animal or person; format: in vivo; conditions: for ED (100%): Mus musculus, 0.5 h; for ED (100%) / ED 100% (dose which increases the reaction time by 100%): 30 minutes after administration; for Q (enteral activity: quotient of ED 100% for intraperitoneal and oral administration): i.p. ED 100% / oral ED 100%, 30 min; for Maximum action, Δ% (increase in reaction time): maximum increase without fatalities
Experimental: (§1) The model used for testing the analgesic action was the tail flick test of D'AMOUR and SMITH (J. Pharmacol. 72 (1941), 74-79). In this experiment, the compounds to be tested were administered intraperitoneally or orally, as aqueous solutions (injection volume 10 ml/kg) to groups of 10 female mice (NMRI strain) weighing 20-22 g each.
(§2) Pain reactions are caused before, and 30 minutes after, the administration of the compound, by means of thermal irritation (the tail being exposed to focused heat radiation from a halogen lamp for at most 30 seconds).
(§3) The time until the tail is drawn out of the radiation zone by reflex action is measured, and taken as the reaction time. Its average value, for 670 untreated animals, is 6.5±0.29 sec.
(§4) Analgesic substances increase the reaction time, to an extent depending on the dose. There is a linear relationship between the logarithms of the doses (mg/kg) and of the relative increase in reaction time (Δ%), from which the dose, defined as the ED 100%, which doubles the reaction time can be calculated by means of regression analysis. For a radiation exposure period of at most 30 seconds, the maximum possible increase in the reaction time is about 360%.

in vivo = format: in vivo, mice (NMRI strain); conditions: mouse, in vivo, read-out: treated animals killed
Experimental: as §1, §2, §3, §4

[3] = ip, read-out: ED 100% (dose which increases the reaction time by 100%), intraperitoneal administration
[4] = po, read-out: ED 100% (dose which increases the reaction time by 100%), oral administration
[5] = oral administration, Nefopam = 1.00
[6] = intraperitoneal administration, Nefopam = 1.00
[7] = intraperitoneal administration, dose of maximum action
[8] = oral administration, dose of maximum action

COc1cccc([C@@]23CCCC[C@@H]2CN(C)CCO3)c1 (single isomer, unassigned) [9 (-), (-)-4-Methyl-9a-(3-methoxyphenyl)-perhydro-1,4-benzoxazepine]
Relative toxicity [1]: 0.40 | LD50 ([1]; in vivo, ip, read-out: LD 50): 145 mg/kg | ED (100%) [2, 3]: 11 mg/kg | ED (100%) [2, 4]: 17.6 mg/kg | Q (enteral activity: quotient of ED 100% for intraperitoneal and oral administration) [2]: 0.63 | Maximum action, Δ% (increase in reaction time) ([2]; intraperitoneal administration): 348% | Maximum action, mg/kg (dose) ([2]; mouse, in vivo, ip): 46.4 mg/kg | relative activity ([2]; mouse, in vivo, ip): 0.74 | Maximum action, mg/kg (dose) ([2]; mouse, in vivo, po): 100 mg/kg | relative activity [2, 5]: 2.64 | Maximum action, Δ% (increase in reaction time) ([2]; oral administration): 397%

COc1cccc([C@@]23CCCC[C@@H]2CN(C)CCO3)c1 (single isomer, unassigned) [9 (+), (+)-4-Methyl-9a-(3-methoxyphenyl)-perhydro-1,4-benzoxazepine]
LD50 [1]: 110 mg/kg | Relative toxicity [1]: 0.52 | Q (enteral activity: quotient of ED 100% for intraperitoneal and oral administration) [2]: 0.71 | ED 100% (dose which increases the reaction time by 100%) ([2]; intraperitoneal administration): 16.7 mg/kg | relative activity [2, 6]: 0.48 | Maximum action, mg/kg (dose) [2, 7]: 46.4 mg/kg | Maximum action, Δ% (increase in reaction time) ([2]; intraperitoneal administration): 249% | ED 100% (dose which increases the reaction time by 100%) ([2]; oral administration): 23.5 mg/kg | relative activity [2, 5]: 1.97 | Maximum action, mg/kg (dose) [2, 8]: 100 mg/kg | Maximum action, Δ% (increase in reaction time) ([2]; oral administration): 370%

COc1cccc([C@@]23CCCC[C@@H]2CN(C)CCO3)c1 (relative stereo) [Example 3, 4-methyl-9a-(3-methoxyphenyl)-perhydro-1,4-benzoxazepine]
Relative toxicity [1]: 0.52 | LD50 ([1]; in vivo, ip, read-out: LD 50): 110 mg/kg | ED (100%) [2, 3]: 11.4 mg/kg | ED (100%) [2, 4]: 17 mg/kg | Q (enteral activity: quotient of ED 100% for intraperitoneal and oral administration) [2]: 0.67 | relative activity [2, 6]: 0.71 | Maximum action, mg/kg (dose) [2, 7]: 46.4 mg/kg | Maximum action, Δ% (increase in reaction time) ([2]; intraperitoneal administration): 416% | relative activity [2, 5]: 2.73 | Maximum action, mg/kg (dose) [2, 8]: 100 mg/kg | Maximum action, Δ% (increase in reaction time) ([2]; oral administration): 397%

COc1cccc([C@@]23CCC[C@@H]2CN(C)CCO3)c1 (relative stereo) [Example 6]
Relative toxicity [1]: 0.45 | LD50 ([1]; in vivo, ip, read-out: LD 50): 127 mg/kg | ED (100%) [2, 3]: 4.66 mg/kg | ED (100%) [2, 4]: 9.49 mg/kg | Q (enteral activity: quotient of ED 100% for intraperitoneal and oral administration) [2]: 0.49 | relative activity [2, 6]: 1.73 | Maximum action, mg/kg (dose) [2, 7]: 46.4 mg/kg | Maximum action, Δ% (increase in reaction time) ([2]; intraperitoneal administration): 380% | relative activity [2, 5]: 4.89 | Maximum action, mg/kg (dose) [2, 8]: 46.4 mg/kg | Maximum action, Δ% (increase in reaction time) ([2]; oral administration): 364%

CC(=O)Oc1cccc([C@@]23CCCC[C@@H]2CN(C)CCO3)c1 (relative stereo) [Example 7 β, 4-Methyl-9a-(3-acetoxyphenyl)-perhydro-1,4-benzoxazepine]
Relative toxicity [1]: 0.30 | LD50 ([1]; in vivo, ip, read-out: LD 50): 194 mg/kg | ED (100%) [2, 3]: 12.6 mg/kg | ED (100%) [2, 4]: 13.1 mg/kg | Q (enteral activity: quotient of ED 100% for intraperitoneal and oral administration) [2]: 0.96 | Maximum action, Δ% (increase in reaction time) ([2]; intraperitoneal administration): 275% | Maximum action, mg/kg (dose) ([2]; mouse, in vivo, ip): 46.4 mg/kg | relative activity ([2]; mouse, in vivo, ip): 0.64 | Maximum action, mg/kg (dose) ([2]; mouse, in vivo, po): 100 mg/kg | relative activity [2, 5]: 3.54 | Maximum action, Δ% (increase in reaction time) ([2]; oral administration): 280%

CN1CCOC(c2ccccc2)c2ccccc2C1 (centres unmarked) [Nefopam, 5-methyl-1-phenyl-3,4,5,6-tetrahydro-1H-benz[f]-2,5-oxazocine, reference compound]
Relative toxicity [1]: 1.00 | LD50 ([1]; in vivo, ip, read-out: LD 50): 57.3 mg/kg | mortality (in vivo; ip, 46.4 mg/kg administered intraperitoneally): 60% | mortality (in vivo; po, 100 mg/kg administered orally): 60% | animals died ([2]; 46.4 mg/kg intraperitoneally): 6 out of 10 animals | animals died ([2]; 100 mg/kg orally): 6 out of 10 animals | ED (100%) ([2]; oral administration, read-out: ED 100% (dose which increases the reaction time by 100%)): 46.4 mg/kg | ED (100%) ([2]; ip, intraperitoneal administration, read-out: ED 100% (dose which increases the reaction time by 100%)): 8.08 mg/kg | Q (enteral activity: quotient of ED 100% for intraperitoneal and oral administration) [2]: 0.17 | Maximum action, mg/kg (dose) [2, 7]: 21.5 mg/kg | Maximum action, Δ% (increase in reaction time) ([2]; intraperitoneal administration): 192% | relative activity [2, 5]: 1.00 | Maximum action, mg/kg (dose) [2, 8]: 46.4 mg/kg | Maximum action, Δ% (increase in reaction time) ([2]; oral administration): 93%

CN1CCO[C@]2(c3cccc(O)c3)CCCC[C@@H]2C1 (relative stereo) [Example 7, 4-Methyl-9a-(3-hydroxyphenyl)-perhydro-1,4-benzoxazepine]
Relative toxicity [1]: 0.35 | LD50 ([1]; in vivo, ip, read-out: LD 50): 165 mg/kg | ED (100%) [2, 3]: 6.55 mg/kg | ED (100%) [2, 4]: 18.6 mg/kg | Q (enteral activity: quotient of ED 100% for intraperitoneal and oral administration) [2]: 0.35 | relative activity [2, 6]: 1.23 | Maximum action, mg/kg (dose) [2, 7]: 46.4 mg/kg | Maximum action, Δ% (increase in reaction time) ([2]; intraperitoneal administration): 364% | relative activity [2, 5]: 2.50 | Maximum action, mg/kg (dose) [2, 8]: 46.4 mg/kg | Maximum action, Δ% (increase in reaction time) ([2]; oral administration): 332%
